Source: PubChem BioAssay (NCI)
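Growth conditions: 96-well plates. Treatment: test compound, 48 hours, 5 concentrations. Analysis: linear interpolation between bracketing concentrations; unreached endpoints set to highest concentration. The concentration for 50% growth inhibition is given as GI50. TGI: total growth inhibition.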 Where a SMILES comes first, the peptide text is derived from it. The star is where a group is joined. Palmitoyl = CCCCCCCCCCCCCCCC(=O)*

Assays:
Assay in all cases: inhibition of tumour cell growth, NCI panel, 48 h
[1] = system: A498 renal
[2] = system: DU-145 prostate
[3] = system: HCT-116 colon
[4] = system: HL-60(TB) leukemia
[5] = system: HOP-92 NSCLC
[6] = system: MOLT-4 leukemia
[7] = system: NCI-H226 lung
[8] = system: OVCAR-4 ovarian
[9] = system: SN12C renal
[10] = system: SF-539 CNS

Row | Structure (SMILES) | TGI [1] | TGI [2] | TGI [3] | TGI [4] | TGI [5] | TGI [6] | TGI [7] | TGI [8] | TGI [9] | GI50 [1] | GI50 [2] | GI50 [3] | GI50 [4] | GI50 [5] | GI50 [6] | GI50 [7] | GI50 [8] | GI50 [10] | TGI [10] | GI50 [9]
1 | Cc1ccsc1/C=N/Nc1cnccn1 | > 100 µM | > 100 µM | > 100 µM | > 100 µM | > 100 µM | > 100 µM | > 100 µM | > 100 µM | > 100 µM | – | – | – | – | – | – | – | – | – | – | –
2 | CCCCCCCCCCCCCCCC(=O)N1CCCC1C(=O)NCC(=O)NC(Cc1ccccc1)C(=O)N1CCCC1C(=O)NC(CO)C(=O)NC(Cc1ccc(O)cc1)C(=O)NC(CCCCN)C(=O)NC(CC(C)C)C(=O)NC(CCCN=C(N)N)C(=O)N1CCCC1C(=O)NCC(N)=O (stereo unspecified) (Palmitoyl-PGFPSYKLRPG-NH2; configuration not given here) | 93.2 µM | 39.9 µM | 31.9 µM | 52.9 µM | 38.9 µM | 37.7 µM | 44.4 µM | 81.8 µM | – | 32.8 µM | 18.3 µM | 14.8 µM | 18.7 µM | 18.7 µM | 18.6 µM | 23.5 µM | 30.1 µM | 20.5 µM | 47.9 µM | –
3 | Cc1cc(C)nc(NC(=S)Nc2ccc([N+](=O)[O-])cc2)c1 | > 100 µM | > 100 µM | > 100 µM | > 100 µM | > 100 µM | > 100 µM | > 100 µM | > 100 µM | – | – | – | – | – | – | – | – | – | – | > 100 µM | –
4 | CN1Cc2c(nc(-c3ccccc3)c[n+]2[O-])N(C)C1 | > 100 µM | – | – | > 100 µM | > 100 µM | > 100 µM | > 100 µM | > 100 µM | > 100 µM | – | – | – | – | – | – | – | – | – | > 100 µM | –
5 | O=C(O)c1cccc(S(=O)(=O)NN2C(=O)CSC2c2ccc(Cl)cc2Cl)c1 (stereo unspecified) | > 100 µM | > 100 µM | 83.1 µM | 34 µM | > 100 µM | > 100 µM | > 100 µM | – | > 100 µM | – | – | – | – | – | – | – | – | – | 40 µM | –
6 | O=C1NC(O)CCN1C1OC(CO)C(O)C1O (stereo unspecified) | > 250 µM | – | > 141 µM | > 250 µM | > 250 µM | > 250 µM | > 250 µM | > 250 µM | > 250 µM | – | – | – | – | – | – | – | – | – | > 250 µM | –
7 | O=C1C(=Nc2ccc(Nc3ccccc3)cc2)Oc2ccccc21 | 21 µM | 21 µM | 3.18 µM | 4.9 µM | – | 6.39 µM | 16.8 µM | 6.8 µM | 4.62 µM | – | – | – | – | – | – | – | – | – | 8.41 µM | –
8 | O=C1c2cccc3cccc(c23)C(=O)N1CCCNCCCCNCCCNCCCN1C(=O)c2cccc3cccc(c23)C1=O | 2.47 µM | 1.53 µM | 1.57 µM | 1.54 µM | 2.37 µM | – | 2.15 µM | 1.76 µM | 1.8 µM | – | – | – | – | – | – | – | – | – | 1.94 µM | –
9 | C=CC1(C)CC(=O)C2(O)C(C)(O1)C(OC(C)=O)C(O)C1C(C)(C)CCC(O)C12C (stereo unspecified) | > 150 µM | – | > 150 µM | > 137 µM | > 150 µM | > 150 µM | > 72.8 µM | > 122 µM | > 102 µM | – | – | – | – | 20.3 µM | > 91.2 µM | – | – | – | > 150 µM | > 49 µM
10 | Nc1ncc2c(n1)-c1ccccc1OC2N1CCCC1 (stereo unspecified) | – | > 100 µM | > 100 µM | 51.7 µM | > 100 µM | > 100 µM | > 100 µM | > 100 µM | > 100 µM | – | – | – | – | – | – | – | – | – | > 100 µM | –
11 | COc1ccc(CC(N)=O)cc1OC | > 1250 µM | – | > 1250 µM | > 1250 µM | > 1170 µM | > 1250 µM | > 1250 µM | > 1250 µM | > 1250 µM | – | – | – | – | – | – | – | – | – | > 1250 µM | –
12 | Cn1c2ccccc2c2c(=S)c3ccccc3ccc21 | > 100 µM | > 100 µM | > 100 µM | > 100 µM | > 100 µM | > 100 µM | > 100 µM | > 100 µM | > 100 µM | – | – | – | – | – | – | – | – | – | – | –
13 | C[C@@H]1CC[C@H]2[C@H]1[C@H]1[C@@H](CC[C@]2(C)N=C=S)C1(C)C | – | 49.6 µM | 31.7 µM | 54.3 µM | 84.7 µM | 32.5 µM | 38.8 µM | > 100 µM | 44.7 µM | – | – | – | – | – | – | – | – | – | – | –
14 | O=C1/C(=C/c2ccc(Cl)cc2)CCCc2ccccc21 | – | 59 µM | 26.5 µM | 33.5 µM | 57.3 µM | 40 µM | 35.9 µM | 29.5 µM | 33.3 µM | – | – | – | – | – | – | – | – | – | 31.8 µM | –
15 | COc1cc(C2c3cc4c(cc3[C@@H](Nc3ccccc3)C3COC(=O)[C@H]23)OCO4)cc(OC)c1O (stereo partly specified) | 1.65 µM | – | 6.27 µM | 1.09 µM | 11.7 µM | 0.13 µM | 2.12 µM | 34.6 µM | 6.03 µM | – | – | – | – | – | – | – | – | – | 1.8 µM | –
16 | CN1CCN(Cc2cc3c(nn2)-c2ccccc2C3=O)CC1 | – | > 100 µM | > 100 µM | 72.5 µM | > 100 µM | > 100 µM | > 100 µM | – | – | – | – | – | – | – | – | – | – | – | > 100 µM | –
17 | O=c1onc2n1-c1cc(Cl)ccc1C(=S)N1CSCC21 (stereo unspecified) | > 100 µM | > 100 µM | > 100 µM | – | – | > 100 µM | > 100 µM | > 100 µM | > 100 µM | – | – | – | – | – | – | – | – | – | – | –
18 | CC(C)C1=CC23CCC4C(C)(C(=O)O)CCCC4(C)C2CC1C1C(=O)N(CCCCCCN2C(=O)C4C5CC6C7(C)CCCC(C)(C(=O)O)C7CCC6(C=C5C(C)C)C4C2=O)C(=O)C13 (stereo unspecified) | 24.3 µM | – | 20.9 µM | 82.6 µM | 36.2 µM | 30.1 µM | – | 34.3 µM | 32.4 µM | – | – | – | – | – | – | – | – | – | – | –
19 | CC(C)(C)c1ccc2c(c1)C#Cc1cc3c(cc1OCCCO2)C#Cc1cc(C(C)(C)C)ccc1OCCCO3 | > 100 µM | > 100 µM | > 100 µM | > 100 µM | > 100 µM | > 100 µM | – | > 100 µM | > 100 µM | – | – | – | – | – | – | – | – | – | > 100 µM | –
20 | CCOC(=O)/C=C1/C(CCCOCc2ccccc2)C2CCCC23CC2(CCN13)OCCO2 (stereo unspecified) | 50.3 µM | – | – | 30 µM | – | 33.2 µM | 66.7 µM | > 100 µM | 86.8 µM | – | – | – | – | – | – | – | – | – | – | –
21 | c1ccc(C(C(=Nc2ccc(Cc3ccc(N=C(C(c4ccccc4)c4ccccc4)N4CC4)cc3)cc2)N2CC2)c2ccccc2)cc1 | 29.1 µM | 28 µM | > 100 µM | 18.4 µM | – | – | 38.3 µM | – | 32.3 µM | – | – | – | – | – | – | – | – | – | 37.8 µM | –
22 | O=C(NN1C(=O)CS(=O)(=O)C1c1ccc(C(F)(F)F)cc1)c1ccncc1 (stereo unspecified) | > 100 µM | – | > 100 µM | > 100 µM | > 100 µM | > 100 µM | > 100 µM | > 100 µM | > 100 µM | – | – | – | – | – | – | – | – | – | – | –
